Entries after “also recorded” stand apart in the source; their conditions may differ.
Legend:
[1] = test system: iPSC-derived nociceptor-like cells; experiment: Multi-electrode array: sensitization of nociceptor-like cells with temperature stimulation; assay type: cell-based, human; settings: then 40° C., day 28
Source text: FIGS. 12A and 12B illustrate the results of an electrophysiology experiment (multi-electrode array using Maestro Pro, Axion Biosystems) showing that iPSC-derived nociceptor-like cells were sensitized in response to treatment with oxaliplatin and prostaglandin E2 (PGE2). Oxaliplatin is a widely used chemotherapeutic drug that can damage sensory neurons of the peripheral nervous system and lead to peripheral neuropathy. PGE2 is used to model inflammatory pain. At day 28 of the procedure described in Example 1, the iPSC-derived nociceptor-like cells were recorded at 37° C. for 10 minutes for baseline recording, and then pre-treated with 0.1% DMSO, 50 μM Oxaliplatin or 1 μM PGE2 for 15 minutes at 37° C. The temperature was then increased to 40° C. to stimulate the cells, and recording was performed for another 10 minutes.

[2] = test system: iPSC-derived nociceptor-like cells; experiment: Multi-electrode array: stimulation of nociceptor-like cells by specific ligands; assay type: cell-based, human
Experimental: Functional analysis of nociceptors derived from iPSCs according to the procedure described in Example 1 was performed. Multi-electrode arrays were used for the electrophysiology characterization experiments.

cellular target = settings: cited from earlier work; for IC50: as described in Sidrauski et al.
[3] = target: T1, purinergic receptor P2RX3 (Homo sapiens, UniProt P56373); experiment: Multi-electrode array: α,β-me-ATP stimulation and P2RX3 antagonist block in nociceptor-like cells; assay type: cell-based; settings: 10 μM, day 28, multi-electrode array
T1 construct: iPSC-derived nociceptor-like cells were stimulated by application of 10 μM α,β-me-ATP, which is a known agonist for P2RX3 purinergic receptors; endogenous in cells; host or cells: iPSC-derived nociceptor-like cells, day 28 of differentiation
T1 sequence (P56373 1-397): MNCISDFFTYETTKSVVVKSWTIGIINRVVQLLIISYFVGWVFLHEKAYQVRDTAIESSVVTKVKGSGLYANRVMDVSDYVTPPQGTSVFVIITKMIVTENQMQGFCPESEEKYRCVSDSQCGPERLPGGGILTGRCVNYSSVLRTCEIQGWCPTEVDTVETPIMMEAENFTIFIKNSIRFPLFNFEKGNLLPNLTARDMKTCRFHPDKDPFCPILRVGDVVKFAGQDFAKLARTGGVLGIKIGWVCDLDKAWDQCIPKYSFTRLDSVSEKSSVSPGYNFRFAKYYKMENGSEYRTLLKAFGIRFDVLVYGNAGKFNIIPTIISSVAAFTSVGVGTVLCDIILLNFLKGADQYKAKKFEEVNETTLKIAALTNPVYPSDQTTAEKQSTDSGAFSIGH
Experimental: At day 28 of the procedure described in Example 1, the iPSC-derived nociceptor-like cells were pre-treated with 0.1% DMSO or 10 μM of each known antagonist of purinergic receptor P2RX3 for 30 minutes at 37° C. The cells were then stimulated by 10 μM α,β-me-ATP, and recordings were performed using multi-electrode.

SMILES: CCCCC[C@H](O)/C=C/[C@H]1[C@H](O)CC(=O)[C@@H]1C/C=C\CCCC(=O)O [PGE2, prostaglandin E2]
- sensitization of nociceptor-like cells ([1]; 1 μM pre-treatment 15 minutes at 37° C.): sensitized

SMILES: COc1cc(CNC(=O)CCCC/C=C/C(C)C)ccc1O [capsaicin]
- response: frequency of firing action potentials ([2]; 5 μM): increasing the frequency of firing action potentials; also recorded: stimulated

SMILES: O=C(COc1ccc(Cl)cc1)NC1CCC(NC(=O)COc2ccc(Cl)cc2)CC1 (stereo not drawn) [cis-ISRIB]
- IC50 (cellular target): 600 nM

SMILES: C=CCN=C=S [mustard oil, allyl isothiocyanate]
- response: frequency of firing action potentials ([2]; 100 μM): increasing the frequency of firing action potentials; also recorded: stimulated

SMILES: O=C1[O][Pt]2([NH][C@@H]3CCCC[C@H]3[NH]2)[O]C1=O [oxaliplatin]
- sensitization of nociceptor-like cells ([1]; 50 μM pre-treatment 15 minutes at 37° C.): sensitized

SMILES: O=C(COc1ccc(Cl)cc1)N[C@H]1CC[C@H](NC(=O)COc2ccc(Cl)cc2)CC1 [trans-ISRIB, N,N′-((1r,4r)-cyclohexane-1,4-diyl)bis(2-(4-chlorophenoxy)acetamide)]
- IC50 (cellular target): 5 nM
- fold more potent than cis-ISRIB (cellular target; trans-ISRIB vs cis-ISRIB): 100 fold

SMILES: Nc1ncnc2c1ncn2[C@@H]1O[C@H](COP(=O)(O)CP(=O)(O)OP(=O)(O)O)[C@@H](O)[C@H]1O [α,β-me-ATP]
- response: frequency of firing action potentials ([2]; 10 μM): increasing the frequency of firing action potentials; also recorded: stimulated
- stimulation of nociceptor-like cells [3]: stimulated
